Patent US7427391B2, “Formulations for use in medical and diagnostic procedures” (priority 2001, dated 2008)

Legend:
Assay type in all cases: in vivo, human
[1] = system: small bowel; experiment: MR (TrueFISP) measurement of small bowel loop diameters after 1500 ml oral contrast solution (Example 4); conditions: for Mean small bowel diameter / Mean small bowel diameter, AV (average of all six volunteer examinations): 1500 ml orally over 45 minutes; for Mean small bowel diameter: MR TrueFISP; for Mean small bowel diameter, AV (average of all six volunteer examinations): average of six volunteers; for Small bowel distension, comparison in words: six volunteers, paired t-test, p<0.01
Method: Six healthy volunteers (three female and three male; age range 21-28 years) without known contraindications to MR imaging were included in this study, which was conducted in accordance with all guidelines set forth by the approving institutional review board. Presence of gastrointestinal disease, previous abdominal surgery and symptoms of gastrointestinal disorders such as post-prandiol belching, nausea or early satiety were excluded. Each volunteer was examined on five different occasions. […] The LBG and Metamucil concentrations were chosen as high as possible within the confines of an unproblematic ingestion regarding viscosity and flavor, while choice of the mannitol concentration was based on previous studies. To assure homogenization of bowel activity, all exams were performed following 8 hour fasts. Prior to each exam, 1500 ml of the respective contrast solution were orally ingested over 45 minutes at a steady, evenly distributed rate. To ensure a consistent ingestion, volunteers were asked to drink 150 ml every four to five minutes. To enhance gastric emptying, 100 mg erythromycin (Abbott Pharmaceutics, Wiesbaden, Germany) were administered intravenously directly after the ingestion of the first 150 ml of the contrast solution. […] For signal reception a large ‘flex surface coils’ was used. Prior to the data acquisition neither spasmolytic agents nor paramagnetic contrast compounds were intravenously applied. […] Other sequence parameters included a field of view 35 cm, a slice thickness of 7 mm (25 slices) and an acquisition time of 24 seconds. Matrix size was 144×256, inter section gap amounted to 1 mm and the number of excitation was one. All 30 MR examinations were of diagnostic image quality. 1500 ml of each solution was ingested within the target time of 45 minutes. Images were quantitatively analyzed independently by two radiologists, who were blinded to the type of oral contrast employed. […] For the measurements bowel loops with maximal diameter were chosen. […] Subsequent analysis was based on mean small bowel diameters and their standard deviations. The effects of the analyzed oral contrast agents concerning small bowel distension were compared by a paired t-test. For the adaptation to multiple samples, a Bonferoni-correction was used.

[2] = system: small bowel; experiment: Blinded qualitative rating of bowel distension on MR images by five radiologists (Example 4); conditions: six volunteers; consensus of five blinded radiologists
From the text: For a qualitative assessment, MR images of all 5 examinations for each volunteer were presented as hardcopies in a randomized and blinded fashion to five radiologists. They were asked to rate the images regarding bowel distention in an ascending order for each volunteer. The qualitative assessment was done by consensus.

[3] = Side-effect questionnaire (diarrhea, nausea) 24 hours after MR examination (Example 4)
From the text: Twenty-four hours after each MR examination, volunteers were asked by a standardized questionnaire based on a three-point scale (0=no side-effects, 1=mild side-effects, 2=severe side-effects) if either diarrhea or nausea have occurred in association with the contrast ingestion.

[4] = Incidence of diarrhea in patients given contrast agent; conditions: administered alone as a contrast agent
Method: Further, it has been discovered that the formulations disclosed herein have the unexpected benefit of reducing incidents of diarrhea among patients. For example, when mannitol alone is administered as a contrast agent, approximately 99% of patients experience diarrhea, sometimes in severe form. As a result, the patient's health and/or hydration may be affected, and the exam may be compromised. […] It is believed that this is due to the thickening properties of the stabilizing agent. Accordingly, due to the patient not having to use the bathroom during the procedure, for example, the medical or diagnostic procedure can be performed with less patient discomfort and with less interference. Additionally, patient compliance with the medical or diagnostic procedure is increased due to decreased complications with the procedure.

[5] = system: stomach and small bowel; experiment: CT-PET measurement of stomach, jejunum and ileum diameters in oncologic patients (Example 5); conditions: 20 oncologic patients per agent
Method: CT-PET examinations of 60 oncologic patients were performed on a combined CT-PET tomograph. Three different oral contrast agents were randomly assigned to 20 patients each: barium, water, and a solution of 2.5% mannitol and 0.2% locust bean gum (LBG). To compare the bowel distension abilities of the three agents, representative diameters each of the stomach, the jejunum and the ileum were measured by two radiologists. PET images were evaluated qualitatively for areas of increased bowel FDG uptake based on a four-point scale as well as quantitatively by determination of standard uptake values (SUV). To assess the effect of the different contrast agents onto the tracer activity concentration phantom measurements were performed.
Table 3 Intestinal distension of the stomach, the jejunum, and the ileum induced by the contrast agents under investigation as well as SUV of the small intestine in the presence of the different contrast materials. Statistical significance was determined by unpaired Student's test based on 200 measurements each for the stomach, the jejunum, the ileum, and the SUV. Thus, a total of 800 measurements were performed for every contrast agent under investigation.

[6] = system: small bowel; experiment: MR imaging of small bowel after oral contrast solutions (Examples 1-3); conditions: oral application, FIGS. 1-9
Method: Ten healthy volunteers with no history of gastrointestinal disorder underwent MR imaging following an eight hour fast. The examination was repeated on four different days using different osmotic substances in a randomized order: water, water spiked with mannitol (2.5%), Metamucil (0.7%) or locust bean gum (0.2%). Concentrations of the additives were chosen to avoid side-effects such as diarrhea.
Forty-five minutes prior to the examination, 50 mg of Erythromycin was applied intravenously to increase gastric emptying and the volunteers started ingesting the respective contrast substance. Coronal 2D measurements were performed in the prone patient position with a TRUFISP sequence (TR/TE/flip 3.2/1.6/70°) using 1.5 T scanner (Sonata, Siemens). The acquisition time amounted to 16 sec. Small bowel filling was quantified in two different ways: (1) determination of small bowel fluid by automatically measuring all pixels meeting the signal intensity of water, and (2) assessment of small bowel distension by manual measurement of 15 small bowel diameters and calculating an average value.

Row | SMILES | Mean small bowel diameter ([1]; Volunteer #1) [mm] | Mean small bowel diameter ([1]; Volunteer #2) [mm] | Mean small bowel diameter ([1]; Volunteer #3) [mm] | Mean small bowel diameter ([1]; Volunteer #4) [mm] | Mean small bowel diameter ([1]; Volunteer #5) [mm] | Mean small bowel diameter ([1]; Volunteer #6) [mm] | Mean small bowel diameter, AV (average of all six volunteer examinations) [1] [mm] | Small bowel distension, comparison in words [1] | Qualitative assessment of small bowel distension (rating) [2] | Diarrhea, in words ([3]; of the three evaluated substances) | Diarrhea as side effect, volunteers reporting ([3]; six volunteers, questionnaire 24 hours after MR examination) | Patients experiencing diarrhea [4] | Intestinal distension of the ileum, Mean [5] | Intestinal distension of the jejunum, Mean [5] | Intestinal distension of the stomach, Mean [5] | Diagnostic performance / lumen distention, in words [6]
1 | OC[C@@H](O)[C@@H](O)[C@H](O)[C@H](O)CO [Mannitol, mannitol] | 23.7 | 22.9 | 19.2 | 19.3 | 22.9 | 19.6 | 21.3 | superior to Metamucil | in four volunteers mannitol was rated better | consistently resulted in diarrhea | 2 of 6 | approximately 99% | – | – | – | –
2 | O [Water, water] | 13.6 | 15.0 | 12.4 | 14.6 | 12.6 | 11.8 | 13.3 | significantly less small bowel distension | rated poorest | – | – | – | 1.4 | 1.6 | 6.1 | does not achieve acceptable or diagnostic results
